Measurements reported in patent publication US9707267B2, “Beta-turn peptidomimetic cyclic compounds for treating dry eye” (Mimetogen Pharmaceuticals, Inc., priority 2008, dated 2017).

Columns and labels:
[1] = test system: scopolamine induced dry eye model; assay: Scopolamine induced dry eye model, tear fluorescein clearance (Example 3); assay type: in vivo, rat; settings: single topical instillation of 1% on day eight; measured day thirteen
Experimental: (§1) Dry eye was induced using scopolamine (Sigma-Aldrich, St. Louis, Mo.), which was continuously and systemically delivered to the animals via an osmotic pump (2ML4 Alzet®; CedarLane, Burlington, Ontario) filled with scopolamine and implanted subcutaneously in the mid dorsal area between the scapulae. The wound was closed with 2-3 wound clips. After the surgery and again the next day, the animals were subcutaneously injected with Carprofen (0.5 mg/100 g) a non-steroidal anti-inflammatory drug and potent, long-acting analgesic in rodents. Animals were anaesthetized before the surgical pump implantation and before all clinical endpoint testing in an Isofluorane 99.9% USP (Abraxis Bioscience, Richmond Hill, Ontario) chamber. […]
Tear fluorescein clearance was evaluated as described for humans (Afonso, A A. et al., “Correlation of Tear Fluorescein Clearance and Schirmer Test Scores with Ocular Irritation Symptoms,” Ophthalmology 106:803-810 (1999), the entire content of which is incorporated herein by reference) and modified for rats (Chen, W. et al., “Keratoconjunctivitis Sicca Modifies Epithelial Stem Cell Proliferation Kinetics in Conjunctiva,” Cornea 26:1101-1106 (2007), the entire content of which is incorporated herein by reference). […] The length of cotton wetting in mm determined the volume of the collected tear fluid. […]

[2] = test system: scopolamine induced dry eye model; assay: Scopolamine induced dry eye model, corneal fluorescein staining (Example 3); assay type: in vivo, rat; settings: single topical 5 μl of 1% (10 mg/mL) on day eight; read day fourteen; score 0 to 4
Experimental: as §1, with “chamber. Scopolamine was delivered at 12.5 mg/day and, for technical reasons, the data was evaluated at day 14.” for “chamber.”
The clinical signs of corneal dryness were evaluated by fluorescein impregnation of the cornea. […] For each animal, the punctate fluorescent-positive area of the ocular surface was recorded in a blinded fashion. […]

[3] = test system: scopolamine induced dry eye model; assay: Scopolamine induced dry eye model, Schirmer test (Example 3); assay type: in vivo, rat; settings: single topical instillation of 1% on day eight; measured day thirteen
Experimental: as §1
Tear production was measured with Zone-Quick standardized phenol-red threads (FCI Ophthalmics, Marshfield Hills, Mass.) on animals lightly sedated with Isoflurane. […] The length of the stained moistened portion of the thread was measured in millimeters, using the scale provided with the threads to an accuracy of 1 mm. […]

[4] = test system: Conjunctival goblet cells; assay: Conjunctival goblet cell proliferation, WST-8 assay (Example 1); assay type: cell-based, rat; settings: NGF 1 nM (FIG. 4), 24 hours
Experimental: Cells derived from the explants were grown in RPMI 1640 supplemented with 10% fetal bovine serum (FBS) and penicillin (100 U/mL)/streptomycin (100 μg/mL) at 37° C. in a humidified 5% CO2-atmosphere for seventy-two hours. Contaminating nongoblet cells were removed by scraping them from the plate. During this time, goblet cells migrated from the pieces and began to proliferate. After one week, the goblet cells were trypsinized and plated in twenty-four well culture plates with RPMI-1640 media supplemented with 10% FBS.
Conjunctival goblet cells were grown to subconfluence in 24-well culture plates and then serum deprived for twenty-four hours. […] CGC proliferation was determined with a colorimetric nonradioactive, WST-8 proliferation assay that measures the number of cells. This procedure employs the 2-(2-methoxy-4-nitrophenyl)-3-(4-nitrophenyl)-5-(2,4-disulfophenyl)-2H-tetrazolium, monosodium salt (WST-8), which is cleaved by viable, growing mitochondria to form a dark blue formazan product that is detected by a fluorescence ELISA reader (Bio-Tek, Winooski, Vt.) at 460 nm.
Data for CGC glycoconjugate secretion and proliferation were expressed as the increase (x-fold) above basal value, which was standardized to 1.0. For example, for the 0.3 μM (micromolar), 1 μM and 10 μM doses, the CGC glycoconjugate secretion and proliferation were expressed as test compound over untreated cells. […]

Compound	aqueous tear turnover, fluorescein clearance (in words) [1]	corneal fluorescein staining, mean score [2]	aqueous tear production, Schirmer test (in words) [3]	CGC proliferation [4]
NCCCC[C@@H]1NC(=O)[C@H](CCC(=O)O)NC(=O)c2cc([N+](=O)[O-])ccc2OCCC(C(=O)NCC(=O)O)NC1=O (stereo partly shown) [Compound D3]	no effect on aqueous tear turnover	1.1±0.1 score	no effect on aqueous tear production	
NGF: nerve growth factor (recombinant human), positive control				1.6±0.3 fold above basal
